# Data reported in ChEMBL document CHEMBL3351941, “Synthesis and antiprotozoal activity of oligomethylene- and p-phenylene-bis(methylene)-linked bis(+)-huprines” (Bioorg Med Chem Lett, 2014).
# Tests used:
# [1] = Selectivity index, ratio of IC50 for rat L6 cells to IC50 for bloodstream forms of Trypanosoma brucei 221; format: toxicity, cell-based; details: L6 cells versus bloodstream forms of Trypanosoma brucei 221, read-out: Ratio IC50
# [2] = test system: L6; assay: Cytotoxicity against rat L6 cells after 6 days by resazurin assay; format: cell-based; details: L6, 144 h
# [3] = test system: Trypanosoma brucei; assay: Trypanocidal activity against bloodstream forms of Trypanosoma brucei 221 assessed as growth inhibition after 48 hrs by resazurin assay; format: functional, organism-based; details: Trypanosoma brucei, 221, 48 h
# [4] = test system: Plasmodium falciparum; assay: Antiplamodial activity against chloroquine-resistant bloodstream forms of Plasmodium falciparum K1 infected in human A+ erythrocytes assessed as growth inhibition after 48 hrs by spectrophotometry; format: functional, organism-based; details: K1, 48 h
# [5] = Effective permeability of the compound by PAMPA assay; format: ADME; details: read-out: Peff
# [6] = target: Acetylcholinesterase (Homo sapiens, UniProt P22303); assay: Inhibition of human recombinant AChE using acetylthiocholine iodide as substrate preincubated for 20 mins by Ellman method
# Sequence of Acetylcholinesterase (P22303 whole entry): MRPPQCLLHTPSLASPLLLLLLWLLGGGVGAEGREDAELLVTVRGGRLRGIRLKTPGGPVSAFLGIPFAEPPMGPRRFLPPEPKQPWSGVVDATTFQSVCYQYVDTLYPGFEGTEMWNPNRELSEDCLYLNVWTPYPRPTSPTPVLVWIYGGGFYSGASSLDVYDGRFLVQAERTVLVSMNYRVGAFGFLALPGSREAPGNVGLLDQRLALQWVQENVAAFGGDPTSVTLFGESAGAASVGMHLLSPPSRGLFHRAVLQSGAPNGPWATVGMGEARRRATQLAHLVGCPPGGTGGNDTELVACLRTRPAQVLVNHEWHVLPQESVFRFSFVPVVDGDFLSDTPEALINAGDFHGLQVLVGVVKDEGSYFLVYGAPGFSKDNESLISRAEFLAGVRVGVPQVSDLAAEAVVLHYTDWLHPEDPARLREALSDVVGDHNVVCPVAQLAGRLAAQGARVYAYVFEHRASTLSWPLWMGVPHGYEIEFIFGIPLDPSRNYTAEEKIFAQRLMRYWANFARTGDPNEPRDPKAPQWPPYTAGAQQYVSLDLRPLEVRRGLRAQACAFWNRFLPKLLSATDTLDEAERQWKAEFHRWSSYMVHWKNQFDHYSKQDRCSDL
Compound,selectivity ratio [1],IC50 [2],IC50 [3],IC90 [3],IC50 [4],Papp [5],IC50 [6]
CC1=C[C@H]2Cc3nc4cc(Cl)ccc4c(NCCCCCCCCCCNc4c5c(nc6cc(Cl)ccc46)C[C@@H]4C=C(C)C[C@H]5C4)c3[C@@H](C1)C2,15.4,7710 nM,500 nM,730 nM,> 6000 nM,8.7 ×10⁻⁶ cm/s,17.5 nM
CC1=C[C@H]2Cc3nc4cc(Cl)ccc4c(NCCCCCCNc4c5c(nc6cc(Cl)ccc46)C[C@@H]4C=C(C)C[C@H]5C4)c3[C@@H](C1)C2,1.8,1610 nM,890 nM,1090 nM,> 6000 nM,11.1 ×10⁻⁶ cm/s,192 nM
C[C@@H]1CC[C@H]2[C@@H](C)C(=O)O[C@@H]3O[C@@]4(C)CC[C@@H]1[C@]32OO4 [ARTEMISININ],,,,,91 nM,,
CC1=CC2Cc3nc4cc(Cl)ccc4c(N)c3C(C1)C2 (stereo unspecified) [HUPRINE Y],,,,,> 10000 nM,,
CC1=C[C@H]2Cc3nc4cc(Cl)ccc4c(NCc4ccc(CNc5c6c(nc7cc(Cl)ccc57)C[C@@H]5C=C(C)C[C@H]6C5)cc4)c3[C@@H](C1)C2,28.2,16100 nM,570 nM,750 nM,> 6000 nM,8.3 ×10⁻⁶ cm/s,
CC1=C[C@H]2Cc3nc4cc(Cl)ccc4c(NCCCCCCCCNc4c5c(nc6cc(Cl)ccc46)C[C@@H]4C=C(C)C[C@H]5C4)c3[C@@H](C1)C2,9.5,4920 nM,520 nM,740 nM,> 6000 nM,13.9 ×10⁻⁶ cm/s,72.5 nM
CC1=C[C@H]2Cc3nc4cc(Cl)ccc4c(NCCCCCCCCCCCCNc4c5c(nc6cc(Cl)ccc46)C[C@@H]4C=C(C)C[C@H]5C4)c3[C@@H](C1)C2,37.5,28500 nM,760 nM,990 nM,> 6000 nM,17.4 ×10⁻⁶ cm/s,431 nM
